# Measured values as given in patent US5110831A, “Vinylogous hydroxamic acids and derivatives thereof as 5-lipoxygenase inhibitors” (Du Pont Merck Pharmaceutical Company, priority 1990, dated 1992).
# Test system: inflammatory cells such as polymorphonuclear leukocytes
# Assay: not given
# Conditions: cited from earlier work
row,Compound,chemotactic activity for inflammatory cells
1,CCCCC/C=C\C[C@@H](O)/C=C/C=C/C=C\[C@@H](O)CCCC(=O)O [LTB4],potent chemotactic factors

# Test system: not given
# Assay: not given
# Conditions: times the activity of histamine; cited from earlier work
row,Compound,spasmogen activity relative to histamine [times]
1,CCCCC/C=C\C\C=C/C=C/C=C/[C@@H](SC[C@H](NC(=O)CC[C@H](N)C(=O)O)C(=O)NCC(=O)O)[C@@H](O)CCCC(=O)O [LTC4],1000
2,CCCCC/C=C\C\C=C/C=C/C=C/[C@@H](SC[C@H](N)C(=O)O)[C@@H](O)CCCC(=O)O [LTE4],1000
3,CCCCC/C=C\C\C=C/C=C/C=C/[C@@H](SC[C@H](N)C(=O)NCC(=O)O)[C@@H](O)CCCC(=O)O [LTD4],1000

# Target: T1, RBL-1 5-Lipoxygenase (Rattus norvegicus, UniProt P12527)
# T1 construct: supernatant from homogenized RBL-1 cells; endogenous in cells; host or cells: RBL-1 cells (10,000×g supernatant of homogenate)
# T1 sequence (P12527 1-673): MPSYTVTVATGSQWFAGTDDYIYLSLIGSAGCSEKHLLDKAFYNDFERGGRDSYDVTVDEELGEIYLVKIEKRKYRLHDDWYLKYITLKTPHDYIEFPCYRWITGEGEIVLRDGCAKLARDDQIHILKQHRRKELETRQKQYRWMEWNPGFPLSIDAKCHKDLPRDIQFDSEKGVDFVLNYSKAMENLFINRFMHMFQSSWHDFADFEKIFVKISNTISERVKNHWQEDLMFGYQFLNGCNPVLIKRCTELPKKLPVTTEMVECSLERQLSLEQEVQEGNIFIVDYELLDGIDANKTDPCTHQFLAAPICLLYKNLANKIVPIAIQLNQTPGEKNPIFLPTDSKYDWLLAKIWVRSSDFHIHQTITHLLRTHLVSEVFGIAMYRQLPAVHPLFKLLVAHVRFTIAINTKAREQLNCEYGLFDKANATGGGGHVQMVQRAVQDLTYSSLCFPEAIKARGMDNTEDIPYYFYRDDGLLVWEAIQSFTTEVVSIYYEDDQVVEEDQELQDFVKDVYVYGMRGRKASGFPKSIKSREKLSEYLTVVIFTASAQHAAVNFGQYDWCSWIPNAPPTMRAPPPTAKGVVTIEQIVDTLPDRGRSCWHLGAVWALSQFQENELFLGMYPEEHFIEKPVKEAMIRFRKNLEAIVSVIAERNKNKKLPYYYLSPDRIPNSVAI
# Assay: RBL-1 5-lipoxygenase assay (10,000×g supernatant from homogenized RBL-1 cells, [14C] arachidonic acid)
# Format: biochemical
# Conditions: pH 7.0, 37° C., 5 min preincubation, 0.042 mM arachidonic acid; linear regression on three concentrations
# Protocol: The potencies of the compounds as 5-lipoxygenase inhibitors were determined using a RBL-1 5-lipoxygenase assay. The procedure of Jakschik et al. was used (Jakschik, B. A.; Lee, L. H.; Shuffer, G.; Parker, C. W., Prostaglandins, 1978, 16, 733; Jakschik, B. A.; Sun, F. F.; Lee, L. H.; Steinhoff, M. M. Biochem. Biophys. Res. Commun., 1980, 95, 100; […]., Biochem. Biophys. Res. Commun., 1981, 102, 624). The enzyme was prepared as a 10,000×gsupernatant from homogenized RBL-1 cells. Because of variability in the enzyme content from culture to culture, an amount of supernatant was chosen to give a net production of 3300-3800 dpm of 5-HETE under the assay conditions (total cell protein 9-20 μg/assay). All reactions were run in duplicate. In a total volume of 100 μL, the appropriate amount of enzyme was incubated with test compound (prepared in 5% DMSO, 95% 0.2 M Tris, pH 8.5) in a phosphate buffer (45 mM sodium phosphate, 0.83 mM EDTA, 0.083% gelatin, 0.1 mM glutathione, 0.83 mM calcium chloride, 0.012 mM indomethacin) at pH 7.0 and 37° C. for 5 min. The reaction was initiated by the addition of 20 μL of a solution of arachidonic acid in phosphate buffer. […] Remaining products were eluted with methanol/water/acetic acid (70:30:1). Activity was measured as the total radioactivity in the 5-LO products, and inhibition was calculated at (1-D/C)×100%, where D is the activity in the presence of the test compound and C is the control activity.
row,Compound,IC50 [nM]
1,CC(c1ccc2ccccc2c1)N(O)C=CC(=O)c1ccc2ccccc2c1 (stereo not drawn) [Example 1b],2200
2,"O=C(C=CN(O)Cc1ccccc1)c1ccc2ccccc2c1 [Example 2a, 1-(2-naphthyl)-3-(N-hydoxy-N-benzyl) aminoprop-2-en-1-one]",2300
3,O=C(C=CN(O)c1ccccc1)c1ccc2ccccc2c1 [Example 2b],1100
4,CN(O)C=CC(=O)c1cc2ccccc2s1 [Example 1i],440
5,O=C(C=CN(O)Cc1ccc2ccccc2c1)C1CC1 [Example 1j],1500
6,O=C(C=CN(O)C1CCCCC1)c1ccc2ccccc2c1 [Example 1c],2500
7,O=C(C=CN(O)Cc1ccccc1)c1ccc(Cl)cc1 [Example 2e],250
8,"CN(O)C=CC(=O)c1ccc(OCc2ccccc2)cc1 [Example 1a, 1-(4-(Benzyloxy)phenyl)-3-(N-hydoxy-N-methyl)aminoprop-2-en-1-one]",1600
9,O=C(C=CN(O)Cc1ccc(OCc2ccccc2)cc1)C1CC1 [Example 1e],3100
10,CC(=O)C=CN(O)Cc1ccc(OCc2ccccc2)cc1 [Example 3a],7700

# Test system: not given
# Assay: not given
# Conditions: cited from earlier work
row,Compound,effect of inhaled LTC4
1,CCCCC/C=C\C\C=C/C=C/C=C/[C@@H](SC[C@H](NC(=O)CC[C@H](N)C(=O)O)C(=O)NCC(=O)O)[C@@H](O)CCCC(=O)O [LTC4],causes the immediate development of symptoms resembling those of an asthmatic attack
